The term mortality denotes the percentage killed.

This is an account of results in US8680269B2, “Pesticidal compositions” (Dow AgroSciences, LLC., priority 2009, dated 2014).

What all share (assay type): in vivo
Experiment [1] deals with corn earworm (CEW; Helicoverpa zea). Description: Insecticidal test for corn earworm, 128-well diet tray assay. Particulars: 144 h, 50 μg/cm2 on artificial diet, second instar larvae, six days at 25° C. The essentials: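 Second-instar H. zea larvae, three to five per well, on artificial diet surface-treated with 50 μg/cm^2 compound (90:10 acetone-water, dried), eight wells per compound. Held 6 days at 25° C, 14:10 light-dark; percent mortality averaged over wells.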

The test system of experiment [2] is beet armyworm (BAW; Spodoptera exigua). Description: Insecticidal test for beet armyworm, 128-well diet tray assay. The conditions noted are these: 144 h, 50 μg/cm2 on artificial diet, second instar larvae, six days at 25° C. The essentials:
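Second-instar larvae, three to five per well, fed on artificial diet surface-treated with 50 μg/cm^2 compound (applied in 90:10 acetone-water, dried). Held 6 days at 25 °C, 14:10 light-dark; percent mortality scored per well and averaged over eight wells.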

Experiment [3] has as its system green peach aphid (Myzus persicae). Description: Insecticidal test for green peach aphid in foliar spray assay. Particulars: 72 h, 200 ppm foliar spray on cabbage seedlings, graded after three days, Abbott corrected % control, read-out: Mortality GPA 200 ppm. On the procedure:
Cabbage seedlings grown in 3-inch pots, with 2-3 small (3-5 cm) true leaves, were used as test substrate. The seedlings were infested with 20-50 green peach aphids (wingless adult and nymph) one day prior to chemical application. Four pots with individual seedlings were used for each treatment. Compounds (2 mg) were dissolved in 2 mL of acetone/methanol (1:1) solvent, forming stock solutions of 1000 ppm. The stock solutions were diluted 5× with 0.025% Tween 20 in H2O to obtain the test solution at 200 ppm. A hand-held Devilbiss sprayer was used for spraying a solution to both sides of cabbage leaves until runoff. Reference plants (solvent check) were sprayed with the diluent only. Treated plants were held in a holding room for three days at approximately 25° C. and 40% relative humidity (RH) prior to grading. Evaluation was conducted by counting the number of live aphids per plant under a microscope. Insecticidal activity data, measured by using Abbott's correction formula, are presented in Table 2: Corrected % Control=100*(X−Y)/X • where X=No. of live aphids on solvent check plants • Y=No. of live aphids on treated plants

As for `CN(C)S(=O)(=O)c1ccccc1NC(=S)N/N=C/c1ccc(-c2ncn(-c3ccc(OC(F)(F)F)cc3)n2)cc1` [Compound 77], the mortality at 50 µg/cm2 in experiment [1] and in experiment [2] was 50 to 100% throughout. Moreover, in experiment [3], the mortality at 200 ppm was below 80%.
For the molecule `COc1ccc(NC(=S)N/N=C/c2ccc(-c3ncn(-c4ccc(OC(F)(F)F)cc4)n3)cc2)cc1` [Compound 28], the mortality at 50 µg/cm2 in experiment [1] and in experiment [2] was 50 to 100% throughout. Besides, the mortality at 200 ppm in experiment [3] was below 80%.
`CNC(=S)N/N=C/c1ccc(-c2ncn(-c3ccc(C(F)(F)F)cc3)n2)cc1` [Compound 15]: the mortality at 50 µg/cm2 in experiment [1] and in experiment [2] was 50 to 100% in each case. The mortality at 200 ppm in experiment [3] is below 80%.
`O=C(N/N=C/c1ccc(-c2ncn(-c3ccc(OC(F)(F)F)cc3)n2)cc1)Nc1c(Cl)cccc1Cl` [Compound 120]: the mortality at 50 µg/cm2 in experiment [1] and in experiment [2] was 50 to 100% each time. The mortality at 200 ppm in experiment [3] was below 80%.
In the case of `COc1ccc(NC(=S)N/N=C/c2ccc(-c3ncn(-c4ccc(OC(F)(F)F)cc4)n3)cc2)c(C(F)(F)F)c1` [Compound 51], the mortality at 50 µg/cm2 in experiment [1] and in experiment [2] was 50 to 100% each time. Further, in experiment [3], the mortality at 200 ppm was below 80%.
In the case of `Fc1c(F)c(F)c(NC(=S)N/N=C/c2ccc(-c3ncn(-c4ccc(OC(F)(F)F)cc4)n3)cc2)c(F)c1F` [Compound 64], the mortality at 50 µg/cm2 in experiment [1] and in experiment [2] was 50 to 100% throughout. In addition, the mortality at 200 ppm in experiment [3] is below 80%.
In the case of `COc1ccc(NC(=S)N/N=C/c2ccc(-n3cnc(-c4ccc(C(F)(F)F)cc4)c3)cc2)cc1` [Compound 69], the mortality at 50 µg/cm2 in experiment [1] and in experiment [2] was 50 to 100% each time. Besides, the mortality at 200 ppm in experiment [3] was below 80%.
As for `Cc1cccc(C)c1NC(=S)N/N=C/c1ccc(-c2ncn(-c3ccc(OC(F)(F)C(F)(F)F)cc3)n2)cc1` [Compound 97], the mortality at 50 µg/cm2 in experiment [1] and in experiment [2] was 50 to 100% in each case. Besides, the mortality at 200 ppm in experiment [3] is below 80%.
As for `CN(C)c1ccc(NC(=S)N/N=C/c2ccc(-c3ncn(-c4ccc(OC(F)(F)F)cc4)n3)cc2)cc1` [Compound 1], the mortality at 50 µg/cm2 in experiment [1] and in experiment [2] was 50 to 100% throughout. Besides, the mortality at 200 ppm in experiment [3] was below 80%.
Turning to `CS(=O)(=O)c1ccccc1NC(=S)N/N=C/c1ccc(-c2ncn(-c3ccc(OC(F)(F)F)cc3)n2)cc1` [Compound 52], the mortality at 50 µg/cm2 in experiment [1] and in experiment [2] was 50 to 100% in each case. Also, the mortality at 200 ppm in experiment [3] is below 80%.
For the molecule `COc1cccc(C)c1NC(=S)N/N=C/c1ccc(-c2ncn(-c3ccc(OC(F)(F)F)cc3)n2)cc1` [Compound 73], the mortality at 50 µg/cm2 in experiment [1] and in experiment [2] was 50 to 100% throughout. Further, the mortality at 200 ppm in experiment [3] was below 80%.
For the molecule `COc1ccc(NC(=O)N/N=C/c2ccc(-c3ncn(-c4ccc(OC(F)(F)F)cc4)n3)cc2)c(C)c1` [Compound 119], the mortality at 50 µg/cm2 in experiment [1] and in experiment [2] was 50 to 100% each time. The mortality at 200 ppm in experiment [3] was below 80%.
Consider `COc1cc(C)c(NC(=S)N/N=C/c2ccc(C3=NN(c4ccc(OC(F)(F)F)cc4)C(C(N)=O)C3)cc2)c(C)c1` (stereo not drawn) [Compound 133], for which the mortality at 50 µg/cm2 in experiment [1] and in experiment [2] was 50 to 100% in each case. In addition, the mortality at 200 ppm in experiment [3] is below 80%.
Consider `CCc1cccc(C)c1NC(=S)N/N=C/c1ccc(-c2ncn(-c3ccc(OC(F)(F)F)cc3)n2)cc1` [Compound 72], for which the mortality at 50 µg/cm2 in experiment [1] and in experiment [2] was 50 to 100% each time. The mortality at 200 ppm in experiment [3] is below 80%.
As for `CN(C)c1ccc(NC(=S)N/N=C/c2ccc(-c3ncn(-c4ccc(OC(F)(F)C(F)(F)F)cc4)n3)cc2)cc1` [Compound 36], the mortality at 50 µg/cm2 in experiment [1] and in experiment [2] was 50 to 100% each time. In experiment [3], the mortality at 200 ppm is below 80%.
In the case of `COc1cccc(OC)c1NC(=S)N/N=C/c1ccc(-c2ncn(-c3ccc(OC(F)(F)F)cc3)n2)cc1` [Compound 57], the mortality at 50 µg/cm2 in experiment [1] and in experiment [2] was 50 to 100% each time. In addition, the mortality at 200 ppm in experiment [3] is below 80%.
Take `FC(F)(F)Oc1ccc(-n2cnc(-c3ccc(/C=N/NC(=S)Nc4ccc(Cl)cn4)cc3)n2)cc1` [Compound 59]: the mortality at 50 µg/cm2 in experiment [1] and in experiment [2] was below 50% in each case. For the same molecule, the mortality at 200 ppm in experiment [3] was below 80%.
As for `COc1ccccc1NC(=S)N/N=C/c1ccc(-c2ncn(-c3ccc(OC(F)(F)F)cc3)n2)cc1` [Compound 74], the mortality at 50 µg/cm2 in experiment [1] and in experiment [2] was 50 to 100% throughout. Further, the mortality at 200 ppm in experiment [3] is below 80%.
Turning to `FC(F)(F)Oc1ccc(-n2cnc(-c3ccc(/C=N/NC(=S)NCCC4=CCCCC4)cc3)n2)cc1` [Compound 20], the mortality at 50 µg/cm2 in experiment [1] and in experiment [2] was 50 to 100% in each case. Moreover, in experiment [3], the mortality at 200 ppm was below 80%.
As for `CN(C)c1ccc(CNC(=S)N/N=C/c2ccc(-c3ncn(-c4ccc(OC(F)(F)F)cc4)n3)cc2)cc1` [Compound 37], the mortality at 50 µg/cm2 in experiment [1] and in experiment [2] was 50 to 100% throughout. For the same molecule, the mortality at 200 ppm in experiment [3] was below 80%.
As for `Fc1ccc(NC(=S)N/N=C/c2ccc(-c3ncn(-c4ccc(OC(F)(F)F)cc4)n3)cc2)cc1` [Compound 10], the mortality at 50 µg/cm2 in experiment [1] and in experiment [2] was 50 to 100% throughout. Also, the mortality at 200 ppm in experiment [3] was below 80%.
For the molecule `FC(F)(F)Oc1ccc(-n2cnc(-c3ccc(/C=N/NC(=S)NCc4ccco4)cc3)n2)cc1` [Compound 27], the mortality at 50 µg/cm2 in experiment [1] and in experiment [2] was 50 to 100% each time. For the same molecule, the mortality at 200 ppm in experiment [3] was below 80%.
For the molecule `FC(F)(F)Oc1ccc(-n2cnc(-c3ccc(/C=N/NC(=S)NCc4ccc(Cl)cc4)cc3)n2)cc1` [Compound 34], the mortality at 50 µg/cm2 in experiment [1] and in experiment [2] was 50 to 100% throughout. Also, the mortality at 200 ppm in experiment [3] was below 80%.
Consider `CN(C)c1cccc(CNC(=S)N/N=C/c2ccc(-c3ncn(-c4ccc(OC(F)(F)F)cc4)n3)cc2)c1` [Compound 38], for which the mortality at 50 µg/cm2 in experiment [1] and in experiment [2] was 50 to 100% in each case. In experiment [3], the mortality at 200 ppm is below 80%.
With `FC(F)(F)Oc1ccc(-n2cnc(-c3ccc(/C=N/NC(=S)NC4CCCCC4)cc3)n2)cc1` [Compound 25], the mortality at 50 µg/cm2 in experiment [1] and in experiment [2] was 50 to 100% each time. The mortality at 200 ppm in experiment [3] is below 80%.
Regarding `COc1ccc(NC(=S)N/N=C/c2ccc(-c3cn(-c4ccc(OC(F)(F)F)cc4)cn3)cc2)cc1` [Compound 67], the mortality at 50 µg/cm2 in experiment [1] and in experiment [2] was 50 to 100% each time. In addition, the mortality at 200 ppm in experiment [3] was below 80%.
Take `COC(=O)C1CC(c2ccc(/C=N/NC(=S)Nc3c(C)cc(OC)cc3C)cc2)=NN1c1ccc(OC(F)(F)F)cc1` (stereo not drawn) [Compound 132]: the mortality at 50 µg/cm2 in experiment [1] and in experiment [2] was 50 to 100% throughout. In addition, in experiment [3], the mortality at 200 ppm is below 80%.
For `COc1ccc(NC(=S)N/N=C/c2ccc(-c3ncn(-c4ccc(OC(F)(F)F)cc4)n3)cc2)c(F)c1` [Compound 50], the mortality at 50 µg/cm2 in experiment [1] and in experiment [2] was 50 to 100% in each case. Besides, the mortality at 200 ppm in experiment [3] is below 80%.
Take `CCc1cccc(CC)c1NC(=S)N/N=C/c1ccc(-c2ncn(-c3ccc(OC(F)(F)F)cc3)n2)cc1` [Compound 76]: the mortality at 50 µg/cm2 in experiment [1] and in experiment [2] was 50 to 100% in each case. The mortality at 200 ppm in experiment [3] is below 80%.
As for `CCCCCNC(=S)N/N=C/c1ccc(-c2ncn(-c3ccc(OC(F)(F)F)cc3)n2)cc1` [Compound 24], the mortality at 50 µg/cm2 in experiment [1] is below 50%; in experiment [2] it was 50 to 100%. In addition, the mortality at 200 ppm in experiment [3] is below 80%.
For `N#Cc1ccccc1NC(=S)N/N=C/c1ccc(-c2ncn(-c3ccc(OC(F)(F)F)cc3)n2)cc1` [Compound 53], in that order: 50 to 100%, 50 to 100% and below 80%.
For `CN(C)C(=S)N/N=C/c1ccc(-c2ncn(-c3ccc(C(F)(F)F)cc3)n2)cc1` [Compound 8] the same measures were 50 to 100%, 50 to 100% and below 80%.
